In patent US20140044779A1, “Liquid Carrier for Oral Delivery of a Pharmacologically Active Agent” (LIPIDOR AB, priority 2011, published 2014):

Assay: Storage stability of dispersions of solid powderous agents in vehicles
Assay type: physicochemical
Details: as little as
Source text: Depending on the chemical and physical nature of the solid and its particle size, a minimum amount of the solid is required to form the stable suspension of the invention. For a given substance of given physical and chemical nature as well of particle size, this minimum amount can be easily determined by experimentation, which is within the reach of a person skilled in the art. With some substances, such as hydrocortisone, stable suspensions are obtained by incorporating as little as 3% by weight of the substance into the fluid carrier. A preferred average particle size (with 50% or more of the particles being below average) is one of less than 550 μm or 250 μm, in particular of less than 100 μm or 20 μm, most preferred of less than 5 μm or 2 μm. The stabilizing effect of the particulate solid of the invention can also be obtained by a mixture of particulate substances, such as a particulate pharmacologically or cosmetically active agent, for instance hydrocortisone, and a particulate pharmaceutically or cosmetically acceptable excipient, such as microcrystalline cellulose. The powderous agents used are practically insoluble in the vehicles.

For `C[C@]12CCC(=O)C=C1CC[C@@H]1[C@@H]2[C@@H](O)C[C@@]2(C)[C@H]1CC[C@]2(O)C(=O)CO` [hydrocortisone, Hydrocortisone], which “amount of substance incorporated into the fluid carrier at which stable suspensions are obtained” value is on record?
Its value is 3 % by weight.
